Experimental data from patent US4882343A, “Biarylalkylimidazole derivatives as anti-depressants” (G. D. Searle & Co., priority 1987, dated 1989).

Experiments:
α1 adrenergic receptor = test: in vitro binding to alpha1-adrenergic receptors (3H-WB4101 or 3H-prazosin displacement), rat brain homogenates; conditions: for % Inhibition of the specific binding for α1 receptor, Ligand WB / % Inhibition of the specific binding for α1 receptor, Ligand PRA: compd. conc. 10^-6 M, rat brain homogenates; for % Inhibition of the specific binding for α1 receptor, Ligand WB: ligand 3H-WB4101 1.6 nM; for % Inhibition of the specific binding for α1 receptor, Ligand PRA: ligand 3H-prazosin 0.2 nM; for Ki: ligand 3H-prazosin, Cheng and Prusoff, read-out: α1 receptor Ki value, ligand PRA
Procedure: Table II summarizes the binding activities for α1 and α2 adrenergic receptors of the compounds tested. The activity of the compounds according to the invention with respect to binding of the α-adrenergic receptors was determined in vitro according to a method derived from the works of B. R. Rouot, et al., Life Sci., 25, 769 (1979) of D. U'Prichard, et al., Mol. Pharmacol., 13, 454 (1977) and of P. Greengrass, et al., European J. Pharmacol., 55, 323, 1979. This method measures the binding to the receptor on rat brain homogenates by marking by means of a specific tritiated ligand placed in competition with the product to be tested. In the present case the binding, to the α1 -adrenergic receptors was measured by use of 1.6 nM of H-WB 4101 (WB) and 0.2 nM --H--prazosin (PRA). The binding to the α2-adrenergic receptors was determined by uses of 0.7 nM of ^3 H-p-aminoclonidine (PAC). The non-specific binding was determined by use of 1,000 nM of phentolamine. Results are given in Table II with columns 2 and 3 expressed in terms of percentage of inhibition of the specific binding at 10^-7 molar and 10^-6 molar compound concentration.
In Table III, columns 2 and 3 show the pKi values (pKi=-log inhibition constant) for respecively the α1 receptor (ligand ^3 H-prazosin) and the α2 receptor (ligand ^3 H-p-aminoclonidine), calculated according to the equation of Cheng and Prusoff: [formula] wherein: Ki represents the inhibition constant;
IC50 represents the concentration of the test compound providing 50% inhibition of the specific binding;
(§1) KD represents the dissociation constant of the ^3 H-ligand in the test mixture
(§2) [L*] represents the concentration of the ^3 H-ligand in the test mixture.

α2 adrenergic receptor [1] = target: T1, α2 adrenergic receptor (Rattus norvegicus, UniProt P22909); test: in vitro binding to alpha2-adrenergic receptors (3H-p-aminoclonidine displacement), rat brain homogenates; conditions: for inhibition at 0.1 µM: compd. conc. 10^-7 M, ligand 3H-p-aminoclonidine 0.7 nM, rat brain homogenates, read-out: % Inhibition of the specific binding for α2 receptor, Ligand PAC; for affinity for α2 receptors in the in vitro binding assay (in words): rat brain, result in words; for Ki: ligand 3H-p-aminoclonidine, Cheng and Prusoff, read-out: α2 receptor Ki value, ligand PAC; for α2-receptor binding affinity for the aminoclonidine ligand relative to the ortho-pyridyl compound (Compound 3): para- and meta-pyridyl compounds versus ortho-pyridyl compound, Table III column 3
T1 construct: rat brain homogenates; from tissue; host or cells: rat brain homogenate
T1 sequence (P22909 1-465): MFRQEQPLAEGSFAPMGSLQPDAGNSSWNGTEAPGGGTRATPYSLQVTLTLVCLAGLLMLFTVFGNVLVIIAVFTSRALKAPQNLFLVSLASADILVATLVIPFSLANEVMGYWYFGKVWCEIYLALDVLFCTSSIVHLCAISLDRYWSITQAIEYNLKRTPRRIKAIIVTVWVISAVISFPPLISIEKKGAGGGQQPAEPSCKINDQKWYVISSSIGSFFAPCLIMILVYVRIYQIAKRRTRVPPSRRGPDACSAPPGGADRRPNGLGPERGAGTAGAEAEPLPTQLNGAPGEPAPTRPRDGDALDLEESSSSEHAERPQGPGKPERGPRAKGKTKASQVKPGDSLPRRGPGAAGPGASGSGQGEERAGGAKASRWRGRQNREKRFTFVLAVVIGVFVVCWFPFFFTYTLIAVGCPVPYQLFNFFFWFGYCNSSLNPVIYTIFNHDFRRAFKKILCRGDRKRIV
Procedure: (§3) This method measures the binding to the receptor on rat brain homogenates by marking by means of a specific tritiated ligand placed in competition with the product to be tested. […] The binding to the α2-adrenergic receptors was determined by uses of 0.7 nM of ^3 H-p-aminoclonidine (PAC). The non-specific binding was determined by use of 1,000 nM of phentolamine.
as §1, §2

α2 adrenergic receptor [2] = test: as above; conditions: ratio of Ki, ligand PRA (α1) / ligand PAC (α2)
Procedure: as §3, §1, §2

[3] = tested on: clonidine-induced depression of locomotor activity (α2 agonist effects); test: open field test, antagonism of clonidine-induced depression of locomotor and rearing activity; type: in vivo, mouse; conditions: 3 mg/kg p.o.; for Open field test % inhibition of clonidine hypomobility, Locomotion / Open field test % inhibition of clonidine hypomobility, Rearing: 1 h before clonidine 150 μg/kg i.p., mouse
Procedure: This study involved clonidine α2 agonist effects on central control of locomotor activity. Clonidine inhibits locomotor activity and rearing activity in the mouse. In this "open field" test, mice were pretreated with the compounds of the present invention at a dose of 3 mg/kg p.o. (n=4 to 8), one hour prior to intraperitoneal administration of clonidine in solution (150 μg/kg, i.p.). Ninety minutes after the clonidine administration the animals were placed in a rectangular "open field" of 47×53 cm, having a floor divided into 36 boxes of about 8×9 cm. The number of boxes through which the animal goes in 3 minutes and the number of rearing episode were noted.

[4] = acute toxicity after oral administration to mice (LD50); conditions: mouse, in vivo, mortality recorded for 15 days
Procedure: The acute toxicity of the compounds of the present invention was studied after oral administration to mice. The products to be tested, suspended in a 1% tragacanth gum mucilage, were administered by means of an intragastric probe to groups of three male mice which had fasted since the preceding day. The doses tested are a function of the effect observed and can vary from 3,000 to 3 mg/kg or less. The mortality was recorded for 15 days. The lethal dose for 50% of the animals (LD50) was calculated according to the method of J. Litchfield and F. Wilcoxon, J. Pharmacol. Exp. Ther., 96, 99 (1949) and expressed in mg/kg. The effect of the products on the behavior of the animals was observed during a 5-to-6 hour period after the treatment indicated above and after 24 hours, using a method derived from that of S. Irwin, described by R. A. Turner, Screening Methods in Pharmacology, Chapter 3, pages 22-34, Academic Press, 1965. If anomalies were noted, the observation was prolonged and smaller doses were tested. The compounds of the present invention have been subjected to a series of in vitro and in vivo tests to determine their biological activity and therapeutic utility. The essential activity of importance resides in the α2 receptor antagonistic activity. […]

α2 adrenergic receptors = target: T2, α2 adrenergic receptors (Cavia porcellus, UniProt Q60474); test: isolated guinea pig ileum, α2 antagonistic and α2 agonistic activity (clonidine inhibition of electrically induced contractions)
T2 construct: upon isolated organs according to a model described by G. Drews; from tissue; host or cells: isolated guinea pig ileum
T2 sequence (Q60474 1-464): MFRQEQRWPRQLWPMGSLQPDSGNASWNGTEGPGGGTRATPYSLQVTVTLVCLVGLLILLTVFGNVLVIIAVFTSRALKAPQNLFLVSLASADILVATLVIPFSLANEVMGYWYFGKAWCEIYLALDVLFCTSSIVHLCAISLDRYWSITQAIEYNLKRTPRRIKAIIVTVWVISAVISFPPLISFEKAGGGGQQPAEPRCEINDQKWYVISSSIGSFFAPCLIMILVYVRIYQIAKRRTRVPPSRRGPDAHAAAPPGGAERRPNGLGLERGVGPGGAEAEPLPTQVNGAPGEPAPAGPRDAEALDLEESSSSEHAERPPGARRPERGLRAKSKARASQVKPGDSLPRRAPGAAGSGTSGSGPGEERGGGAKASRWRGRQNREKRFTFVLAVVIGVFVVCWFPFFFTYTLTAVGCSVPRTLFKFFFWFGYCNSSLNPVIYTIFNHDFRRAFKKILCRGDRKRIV
Procedure: In Table IV, columns 3 and 4 summarize the in vitro activities of the compounds evaluated in a guinea pig ileum model. Column 5 summarizes the α2 antagonistic effects of the compounds in an in vivo animal model. The α2 antagonistic and α2 agonistic activities of the compounds according to the invention were determined upon isolated organs according to a model described by G. Drews, Br. J. Pharmaco., 64, 293-300 (1978). This model was based upon the principle that the stimulation of the cholinergic nervous transmissions of the guinea pig ileum causes the liberation of acetyl choline, which in turn causes contractions of the ileum. The stimulation of the α2 -adrenergic receptors inhibits the activity of the cholinergic nerves and consequently reduces all responses due to the latter. Thus the contractions of the ileum induced by electric stimulation are inhibited by clonidine, an α2 agonist, in proportion to the dose. This inhibition was selectively displaced by α2 antagonists and not by α1 antagonists. The method used can be summarized as follows. Three dose-response curves to clonidine were established at an interval of 60 minutes. […] The dose-response curves were calculated as a percentage of the maximum inhibition obtained for the first curve. […] The α2 antagonist activity, expressed in pA2 value shown in column 3 of Table IV, was calculated according to J. M. Van Rossum, Arch. […]

| SMILES | % Inhibition of the specific binding for α1 receptor, Ligand WB (α1 adrenergic receptor) [%] | % Inhibition of the specific binding for α1 receptor, Ligand PRA (α1 adrenergic receptor) [%] | Ki (α1 adrenergic receptor) [nM] | inhibition at 0.1 µM (α2 adrenergic receptor [1]) [%] | affinity for α2 receptors in the in vitro binding assay (in words) (α2 adrenergic receptor [1]) | Ki (α2 adrenergic receptor [1]) [nM] | α2-receptor binding affinity for the aminoclonidine ligand relative to the ortho-pyridyl compound (Compound 3) (α2 adrenergic receptor [1]) | Selectivity of α1/α2 affinity (Kiα1/Kiα2) (α2 adrenergic receptor [2]) | Open field test % inhibition of clonidine hypomobility, Locomotion [3] [%] | Open field test % inhibition of clonidine hypomobility, Rearing [3] [%] | antagonism of clonidine-induced depression of locomotor and rearing activity (in words) ([3]; mouse open field, result in words) | LD50 at 360 h [4] [mg/kg] | Kb (α2 adrenergic receptors; against clonidine, read-out: α2 antagonist activity pA2 (converted)) [nM] | EC50 (α2 adrenergic receptors; pD2 = -log ED50, 50% of maximum inhibition obtained with clonidine, read-out: α2 agonist activity pD2 (converted)) [nM] |
| --- | --- | --- | --- | --- | --- | --- | --- | --- | --- | --- | --- | --- | --- | --- |
| c1ccc(C(Cc2c[nH]cn2)c2ccncc2)cc1 (stereo not drawn) [Compound 1, 4(5)-[2-phenyl-2-(4-pyridinyl)-ethyl]-imidazole] | 2 | 14 | 13400 | 91 | high affinity for α2 receptors | 4.6 | fifteen times higher | 2900 | 90 | 80 | very active in this test |  |  |  |
| c1ccc(C(Cc2c[nH]cn2)c2ccccn2)cc1 (stereo not drawn) [Compound 3, 4(5)-[2-phenyl-2-(2-pyridyl)-ethyl]-imidazole] | 0 |  |  | 40 |  | 73 |  |  |  |  |  | 130 | 50.1 | 100000 |
| c1ccc(C(Cc2c[nH]cn2)c2cccnc2)cc1 (stereo not drawn) [Compound 2, 4(5)-[2-phenyl-2-(3-pyridinyl)-ethyl]-imidazole] | 7 | 10 | 2600 | 94 | high affinity for α2 receptors | 4.8 | fifteen times higher | 540 |  |  |  | ~175 |  |  |
| c1ccc(C(Cc2c[nH]cn2)c2ccccc2)cc1 [CC, reference compound] | 21 | 27 | 660 |  |  | 7.8 |  | 85 | 100 | 100 |  |  |  |  |
